According to ChEMBL document CHEMBL6109129, “Discovery of Conformationally Constrained Dihydro Benzo-Indole Derivatives as Metallo-β-Lactamase Inhibitors to Tackle Multidrug-Resistant Bacterial Infections” (J Med Chem, 2025):
Values after ≈ are worked out from the molar mass of the structure shown. Active and inactive are the calls of the source. The rule behind the calls is not given here.

Tests used:
[1] = target: Metallo-beta-lactamase type 2 (Bacteria, UniProt C7C422); test: Inhibition of N-terminal truncated NDM1 (1 to 49N residues) (unknown origin) extracted from Escherichia coli BL21(DE3) cells using FC5 as substrate preincubated for 10 mins followed by substrate addition and measured immediately by fluorescence based analysis
Metallo-beta-lactamase type 2, sequence (C7C422 whole entry, the tested form may be a part): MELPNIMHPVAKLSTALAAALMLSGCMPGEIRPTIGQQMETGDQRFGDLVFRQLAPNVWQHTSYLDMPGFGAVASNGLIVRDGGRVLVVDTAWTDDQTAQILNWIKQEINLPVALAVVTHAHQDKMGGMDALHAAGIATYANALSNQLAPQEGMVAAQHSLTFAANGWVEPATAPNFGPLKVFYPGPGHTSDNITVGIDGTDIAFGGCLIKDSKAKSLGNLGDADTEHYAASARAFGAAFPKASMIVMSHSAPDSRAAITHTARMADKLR

[2] = Inhibition of IMP-1 (unknown origin) using FC5 as substrate preincubated for 10 mins followed by substrate addition and measured immediately by fluorescence based analysis; parameters: species or system Bacteria
[3] = Inhibition of VIM-1 (unknown origin) using FC5 as substrate preincubated for 10 mins followed by substrate addition and measured immediately by fluorescence based analysis; parameters: species or system Bacteria
Klebsiella pneumoniae [4] = test: Antibacterial activity against carbapenem-resistant Klebsiella pneumoniae BAA-2473 assessed as reduction in microbial growth measured after 16 to 18 hrs by microbial dilution method; assay type: functional; details: time 16-18 hrs
[5] = tested on: Klebsiella pneumoniae subsp. pneumoniae; test: Antibacterial activity against carbapenem-resistant Klebsiella pneumoniae subsp. pneumoniae BAA-2472 assessed as reduction in microbial growth measured after 16 to 18 hrs by microbial dilution method; assay type: functional; details: time 16-18 hrs
Escherichia coli [6] = test: Antibacterial activity against carbapenem-resistant Escherichia coli BAA-2471 assessed as reduction in microbial growth measured after 16 to 18 hrs by microbial dilution method; assay type: functional; details: time 16-18 hrs
[7] = tested on: Klebsiella pneumoniae subsp. pneumoniae; test: Antibacterial activity against carbapenem-resistant Klebsiella pneumoniae subsp. pneumoniae BAA-2470 assessed as reduction in microbial growth measured after 16 to 18 hrs by microbial dilution method; assay type: functional; details: time 16-18 hrs
Escherichia coli [8] = test: Antibacterial activity against carbapenem-resistant Escherichia coli BAA-2469 assessed as reduction in microbial growth measured after 16 to 18 hrs by microbial dilution method; assay type: functional; details: time 16-18 hrs
Enterobacter cloacae = test: Antibacterial activity against carbapenem-resistant Enterobacter cloacae BAA-2468 assessed as reduction in microbial growth measured after 16 to 18 hrs by microbial dilution method; assay type: functional; details: time 16-18 hrs
Klebsiella pneumoniae [9] = test: Antibacterial activity against carbapenem-resistant Klebsiella pneumoniae 571278 assessed as reduction in microbial growth measured after 16 to 18 hrs by microbial dilution method; assay type: functional; details: time 16-18 hrs
Klebsiella pneumoniae [10] = test: Antibacterial activity against carbapenem-resistant Klebsiella pneumoniae 565345 assessed as reduction in microbial growth measured after 16 to 18 hrs by microbial dilution method; assay type: functional; details: time 16-18 hrs
Escherichia coli [11] = test: Antibacterial activity against carbapenem-resistant Escherichia coli 571307 assessed as reduction in microbial growth measured after 16 to 18 hrs by microbial dilution method; assay type: functional; details: time 16-18 hrs
Klebsiella pneumoniae [12] = test: Antibacterial activity against carbapenem-resistant Klebsiella pneumoniae 552439 assessed as reduction in microbial growth measured after 16 to 18 hrs by microbial dilution method; assay type: functional; details: time 16-18 hrs
Klebsiella pneumoniae [13] = test: Antibacterial activity against carbapenem-resistant Klebsiella pneumoniae 538961 assessed as reduction in microbial growth measured after 16 to 18 hrs by microbial dilution method; assay type: functional; details: time 16-18 hrs
Escherichia coli [14] = test: microbe, parasite or virus in culture; details: 567975
Description: Antibacterial activity against carbapenem-resistant Escherichia coli 567975 assessed as reduction in microbial growth measured after 16 to 18 hrs by microbial dilution method

Escherichia coli [15] = test: microbe, parasite or virus in culture; details: 565988
Description: Antibacterial activity against carbapenem-resistant Escherichia coli 565988 assessed as reduction in microbial growth measured after 16 to 18 hrs by microbial dilution method

Escherichia coli [16] = test: microbe, parasite or virus in culture; details: 541588
Description: Antibacterial activity against carbapenem-resistant Escherichia coli 541588 assessed as reduction in microbial growth measured after 16 to 18 hrs by microbial dilution method

Klebsiella pneumoniae [17] = test: Anti-infective activity against carbapenem-resistant Klebsiella pneumoniae ATCC BAA 2146 expressing NDM-1 infected in neutropenic female BALB/c mouse deep thigh infection model assessed as reduction in bacterial count at 20 mg/kg, sc pre-infected with bacteria for 2 hrs followed by compound addition and measured after 26 hrs; assay type: functional
Klebsiella pneumoniae [18] = test: Synergistic antibacterial activity against Klebsiella pneumoniae ATCC BAA 2146 expressing NDM-1 measured after 16 to 18 hrs in presence of imipenem by microbial dilution method; assay type: functional, organism-based; details: time 16-18 hrs
Klebsiella pneumoniae [19] = test: Synergistic antibacterial activity against Klebsiella pneumoniae ATCC BAA 2146 expressing NDM-1 measured after 16 to 18 hrs in presence of meropenem by microbial dilution method; assay type: functional, organism-based; details: time 16-18 hrs
[20] = target: Metallo-beta-lactamase type 2 (Bacteria) (UniProt C7C422); test: Induction of thermal stabilization of NDM-1 (unknown origin) assessed as increase in melting temperature by differential scanning fluorimetry analysis; details: dose 3.12-50 µM
Metallo-beta-lactamase type 2 (Bacteria), sequence (C7C422 whole entry): as the sequence (C7C422 whole entry, the tested form may be a part) above

[21] = target: Metallo-beta-lactamase type 2 (Bacteria) (UniProt C7C422); test: Induction of thermal stabilization of NDM-1 (unknown origin) assessed as melting temperature at 50 uM by differential scanning fluorimetry analysis
[22] = target: Metallo-beta-lactamase type 2 (Bacteria) (UniProt C7C422); test: Induction of thermal stabilization of NDM-1 (unknown origin) assessed as melting temperature at 25 uM by differential scanning fluorimetry analysis
[23] = target: Metallo-beta-lactamase type 2 (Bacteria) (UniProt C7C422); test: Induction of thermal stabilization of NDM-1 (unknown origin) assessed as melting temperature at 12.5 uM by differential scanning fluorimetry analysis
[24] = target: Metallo-beta-lactamase type 2 (Bacteria) (UniProt C7C422); test: Induction of thermal stabilization of NDM-1 (unknown origin) assessed as melting temperature at 6.25 uM by differential scanning fluorimetry analysis
[25] = target: Metallo-beta-lactamase type 2 (Bacteria) (UniProt C7C422); test: Induction of thermal stabilization of NDM-1 (unknown origin) assessed as melting temperature at 3.12 uM by differential scanning fluorimetry analysis

Compound: Cc1cc(C)cc(-c2c(C(=O)O)[nH]c3c2CCc2ccccc2-3)c1
- IC50 [1]: 4.7 nM
- IC50 [2]: 1200 nM
- IC50 [3]: 330 nM

Compound: NCCN[C@H]1CC[C@H](CC(=O)N[C@H]2Cc3cccc(C(=O)O)c3OB2O)CC1
- IC50 [2]: 38000 nM
- IC50 [3]: 104 nM

Compound: O=C(O)c1[nH]c2c(c1-c1cncc(Cl)c1)CCc1ccccc1-2
- IC50 [1]: 2.3 nM
- IC50 [2]: 1500 nM
- IC50 [3]: 197 nM

Compound: Cc1cc(C(=O)O)[nH]c1-c1ccccc1
- IC50 [1]: 10600 nM
- IC50 [2]: 44000 nM
- IC50 [3]: 96000 nM

Compound: COc1cc(F)cc(-c2c(C(=O)O)[nH]c3c2CCc2ccccc2-3)c1
- IC50 [1]: 6.8 nM
- IC50 [2]: 15000 nM
- IC50 [3]: 3500 nM

Compound: O=C(O)c1[nH]c2c(c1-c1ccc(Cl)cc1Cl)CCc1ccccc1-2
- IC50 [1]: 2 nM
- IC50 [2]: 9800 nM
- IC50 [3]: 427 nM

Compound: O=C(O)c1[nH]c2c(c1-c1ccc(F)c(F)c1)CCc1ccccc1-2
- IC50 [1]: 2.9 nM
- IC50 [2]: 6400 nM
- IC50 [3]: 1100 nM

Compound: O=C(O)c1[nH]c2c(c1-c1ccccc1)CCc1ccccc1-2
- IC50 [1]: 111 nM
- IC50 [2]: 8500 nM
- IC50 [3]: 3700 nM

Compound: O=C(O)c1[nH]c2c(c1-c1cc(F)cc(F)c1)CCc1ccccc1-2
- IC50 [1]: 47 nM
- IC50 [2]: 5600 nM
- IC50 [3]: 581 nM

Compound: COc1ccc(-c2c(C(=O)O)[nH]c3c2CCc2ccccc2-3)cc1
- IC50 [1]: 905 nM
- IC50 [3]: 34000 nM

Compound: C[C@@H](O)[C@H]1C(=O)N2C(C(=O)O)=C(S[C@@H]3CN[C@H](C(=O)N(C)C)C3)[C@H](C)[C@H]12 [MEROPENEM]
- MIC (Klebsiella pneumoniae [4]): > 64 µg/mL
- MIC [5]: > 64 µg/mL
- MIC (Escherichia coli [6]): > 64 µg/mL
- MIC [7]: 32 µg/mL
- MIC (Escherichia coli [8]): 64 µg/mL
- MIC (Enterobacter cloacae): > 64 µg/mL
- MIC (Klebsiella pneumoniae [9]): 64 µg/mL
- MIC (Klebsiella pneumoniae [10]): 64 µg/mL
- MIC (Escherichia coli [11]): 64 µg/mL
- MIC (Klebsiella pneumoniae [12]): > 64 µg/mL
- MIC (Klebsiella pneumoniae [13]): > 64 µg/mL
- MIC (Escherichia coli [14]): 64 µg/mL (≈ 167 µM)
- MIC (Escherichia coli [15]): 64 µg/mL (≈ 167 µM)
- MIC (Escherichia coli [16]): 64 µg/mL (≈ 167 µM)

Compound: O=C(O)c1[nH]c2c(c1-c1ccccc1F)CCc1ccccc1-2
- IC50 [1]: 58 nM
- IC50 [2]: 2300 nM
- IC50 [3]: 613 nM

Compound: COc1ccc(F)cc1-c1c(C(=O)O)[nH]c2c1CCc1ccccc1-2
- IC50 [1]: 7.5 nM
- IC50 [2]: 380 nM
- IC50 [3]: 268 nM

Compound: Cc1ccc(-c2c(C(=O)O)[nH]c3c2CCc2ccccc2-3)c(F)c1
- IC50 [1]: 7.7 nM
- IC50 [2]: 4600 nM
- IC50 [3]: 1500 nM

Compound: O=C(O)c1[nH]c2c(c1-c1cccc(F)c1F)CCc1ccccc1-2
- IC50 [1]: 268 nM
- IC50 [2]: 2400 nM
- IC50 [3]: 1900 nM

Compound: O=C(O)c1[nH]c2c(c1-c1cc(Cl)c(Cl)c(Cl)c1)CCc1ccccc1-2
- IC50 [2]: 1200 nM
- IC50 [3]: 2200 nM

Compound: O=C(O)c1[nH]c2c(c1-c1ccc(Cl)cc1)CCc1ccccc1-2
- IC50 [1]: 3.1 nM
- IC50 [2]: 2100 nM
- IC50 [3]: 1700 nM

Compound: COc1cc(OC)cc(-c2c(C(=O)O)[nH]c3c2CCc2ccccc2-3)c1
- IC50 [1]: 5 nM
- IC50 [2]: 914 nM
- IC50 [3]: 308 nM

Compound: O=C(O)c1ccccn1 [2-PICOLINIC ACID]
- IC50 [1]: 13700 nM
- IC50 [2]: > 200000 nM
- IC50 [3]: > 200000 nM

Compound: C[C@@H](O)[C@H]1C(=O)N2C(C(=O)O)=C(SCCNC=N)C[C@H]12 [IMIPENEM ANHYDROUS]
- MIC (Klebsiella pneumoniae [4]): > 64 µg/mL
- MIC [5]: > 64 µg/mL
- MIC (Escherichia coli [6]): 64 µg/mL
- MIC [7]: 16 µg/mL
- MIC (Escherichia coli [8]): 64 µg/mL
- MIC (Enterobacter cloacae): > 64 µg/mL
- MIC (Klebsiella pneumoniae [9]): 16 µg/mL
- MIC (Klebsiella pneumoniae [10]): 32 µg/mL
- MIC (Escherichia coli [11]): 32 µg/mL
- MIC (Klebsiella pneumoniae [12]): 32 µg/mL
- MIC (Klebsiella pneumoniae [13]): 64 µg/mL
- Activity (Klebsiella pneumoniae [17]): ~1.15 log10CFU/ml
- MIC (Escherichia coli [14]): 16 µg/mL (≈ 53.4 µM)
- MIC (Escherichia coli [15]): 8 µg/mL (≈ 26.7 µM)
- MIC (Escherichia coli [16]): 8 µg/mL (≈ 26.7 µM)

Compound: O=C(O)c1[nH]c2c(c1-c1cc(F)cc(Cl)c1)CCc1ccccc1-2
- Activity (Klebsiella pneumoniae [18]): Active
- IC50 [1]: 1.9 nM
- IC50 [2]: 149 nM
- IC50 [3]: 48 nM
- Activity (Klebsiella pneumoniae [19]): Active
- Activity [20]: Active
- Tm [21]: 17 °C
- Tm [22]: 16 °C
- Tm [23]: 15 °C
- ΔTm [24]: 13 °C
- Tm [25]: 9 °C

Compound: O=C(O)c1[nH]c2c(c1-c1cccc(Cl)c1Cl)CCc1ccccc1-2
- IC50 [1]: 15 nM
- IC50 [2]: 22000 nM

Compound: O=C(O)c1[nH]c2c(c1-c1ccncc1)CCc1ccccc1-2
- IC50 [1]: 71 nM
- IC50 [2]: 14000 nM
- IC50 [3]: 2600 nM

Compound: O=C(O)c1[nH]c2c(c1-c1ccccc1Cl)CCc1ccccc1-2
- IC50 [1]: 3.1 nM
- IC50 [2]: 990 nM
- IC50 [3]: 217 nM

Compound: COc1ccccc1-c1c(C(=O)O)[nH]c2c1CCc1ccccc1-2
- IC50 [1]: 188 nM
- IC50 [2]: 3000 nM
- IC50 [3]: 1000 nM

Compound: O=C(O)c1[nH]c2c(c1-c1cc(Cl)cc(Cl)c1)CCc1ccccc1-2
- Activity (Klebsiella pneumoniae [18]): Active
- IC50 [1]: 8 nM
- IC50 [2]: 428 nM
- IC50 [3]: 34 nM
- Activity (Klebsiella pneumoniae [19]): Active
- Activity [20]: Active
- Tm [21]: 14 °C
- Tm [22]: 11 °C
- Tm [23]: 8 °C
- ΔTm [24]: 1 °C

Compound: COc1cc(F)ccc1-c1c(C(=O)O)[nH]c2c1CCc1ccccc1-2
- IC50 [1]: 23.6 nM
- IC50 [2]: 1700 nM
- IC50 [3]: 580 nM

Compound: O=C(O)c1cc2c([nH]1)-c1ccccc1CC2
- IC50 [1]: 8200 nM
- IC50 [2]: 23000 nM
- IC50 [3]: 7000 nM

Compound: O=C(O)c1[nH]c2c(c1-c1cncc(F)c1)CCc1ccccc1-2
- IC50 [1]: 62 nM
- IC50 [2]: 4100 nM
- IC50 [3]: 2100 nM

Compound: Cc1cc(Cl)cc(-c2c(C(=O)O)[nH]c3c2CCc2ccccc2-3)c1
- IC50 [2]: 320 nM
- IC50 [3]: 557 nM

Compound: O=C(O)c1[nH]c2c(c1-c1cccc(Cl)c1)CCc1ccccc1-2
- IC50 [1]: 2.5 nM
- IC50 [2]: 350 nM
- IC50 [3]: 468 nM

Compound: O=C(O)c1[nH]c2c(c1-c1cccc(F)c1)CCc1ccccc1-2
- IC50 [1]: 8.1 nM
- IC50 [2]: 3000 nM
- IC50 [3]: 408 nM

Compound: COc1cc(Cl)cc(-c2c(C(=O)O)[nH]c3c2CCc2ccccc2-3)c1
- IC50 [2]: 303 nM
- IC50 [3]: 438 nM

Compound: CC(C)(C)c1ccc(-c2c(C(=O)O)[nH]c3c2CCc2ccccc2-3)cc1
- IC50 [1]: 15 nM
- IC50 [2]: 8500 nM
- IC50 [3]: 797 nM
